According to article PMC9856044 (Biomolecules, 2023):
Structures can show the parent of a compound that is named as a salt. One block for each molecule: values may come before it.

What was measured:
[1] = system: Tel22 (DNA, G4) AGGGTTAGGGTTAGGGTTAGGG; experiment: UV thermal melting, 260 nm; conditions: pH 7.0, Tel22 2 µM, r = 1.0 (compound 2 µM)
[2] = system: Tel22 (DNA, G4) AGGGTTAGGGTTAGGGTTAGGG; experiment: fluorescence titration (SPECFIT); conditions: pH 7.0, 25 °C; for logKa: K+ (potassium phosphate, I = 0.1 M); for logKa1: Na+ (sodium cacodylate, I = 0.1 M)
[3] = system: poly(dGdC)2 (GC-DNA) (DNA, polymer) GC; experiment: CD titration (ICD); conditions: Na+ (sodium cacodylate, I = 0.05 M), pH 7.0, 25 °C
[4] = system: poly(dAdT)2 (AT-DNA) (DNA, polymer) AT; experiment: CD titration (ICD); conditions: Na+ (sodium cacodylate, I = 0.05 M), pH 7.0, 25 °C
[5] = system: poly A–poly U (AU-RNA) (RNA, polymer) A/U; experiment: CD titration (ICD); conditions: Na+ (sodium cacodylate, I = 0.05 M), pH 7.0, 25 °C
[6] = system: poly(dAdT)2 (AT-DNA) (DNA, polymer) AT; experiment: UV thermal melting, 260 nm; conditions: Na+ (sodium cacodylate, I = 0.05 M); pH 7.0; r [compound]/[nucleotide phosphate] = 0.1; per base
Tel22 G-quadruplex [7] = experiment: Thermal melting of Tel22 in sodium cacodylate buffer; type: binding, human; conditions: Tel22, r = 1.0, sodium cacodylate buffer, pH = 7.0, I = 0.1 mol dm^−3; error ± 0.5 °C
Experimental: (§1) Thermal melting curves for DNA, RNA and their complexes with studied compounds were determined as previously described by following the absorption change at 260 nm as a function of temperature. The absorbance of the ligands was subtracted from every curve and the absorbance scale was normalized. Tm values are the midpoints of the transition curves determined from the maximum of the first derivative and checked graphically by the tangent method. The ∆Tm values were calculated by subtracting Tm of the free nucleic acid from Tm of the complex. Every ∆Tm value here reported was the average of two measurements. The error in ∆Tm is ±0.5 °C. 5′-AGGG(TTAGGG)3–3′(Tel22) was obtained from IDT (Integrated DNA Technologies, Coralville, IA, USA). Tel22 was dissolved in 0.1 M either in sodium cacodylate or potassium phosphate buffer. The starting Tel22 oligonucleotide solution was first heated up to 95 °C for 10 min, then slowly cooled to 10 °C at the cooling rate of 1 °C/min to allow DNA oligonucleotide to adopt a G-quadruplex structure. The G-quadruplex structure was confirmed by thermal melting and CD spectra. The concentration of G quadruplex was expressed in terms of oligonucleotide structure. In fluorimetric titrations, aliquots of Tel 22 solution were added to the solution of ligands (c ~ 2 × 10^−7 M, in SI).

[8] = Solubility and aggregation (UV/Vis characterization); type: physicochemical; conditions: for Aggregation in aqueous buffer: sodium cacodylate buffer, I = 0.05 mol dm^−3, pH = 7.0, UV/Vis
Experimental: The UV/vis spectra were recorded on a Varian Cary 100 Bio spectrophotometer (Agilent, Santa Clara, CA, USA), CD spectra on JASCO J815 spectrophotometer (ABL&E Handels GmbH, Wien, Austria) and fluorescence spectra on a Varian Cary Eclipse spectrophotometer (Agilent, Santa Clara, CA, USA) at 25 °C using appropriate 1 cm path quartz cuvettes.
Studied compounds, 1–6 were soluble (c = 8 × 10^−4 mol dm^−3) in DMSO. […] Therefore, the stock solution of 2 was prepared fresh before use. The experiments were done in aqueous buffer (sodium cacodylate buffer, I = 0.05 mol dm^−3; pH = 7.0).
However, the shape of UV/Vis spectra of cyanine 2 changed with increasing concentration (calibration experiment in Figure S2 in SI). In addition to the dominant maximum at 432 nm (which most likely corresponds to the monomer form of the dye), the absorption band at 413 nm becomes more intense (Figure S2 in SI). Presumably, it corresponds to the aggregated form (H-aggregate). Based on the existence of an absorption band at 432 nm, only the monomer dye form is visible at high temperature (95 °C) (Figure S8b in SI). However, after cooling the solution to 25 °C, an additional band appears at 413 nm, which corresponds to the aggregated dye form.

HeLa cells = experiment: MTT cytotoxicity assay, HeLa; type: cell-based; conditions: Homo sapiens, 72 h incubation, ± SD
Experimental: (§2) Human cervical carcinoma HeLa (GIBCO BRL, Invitrogen, Waltham, MA, USA), human melanoma MDA-MB-435S and human ovarian adenocarcinoma SK-OV-3 (ATCC-LGC Standards GmbH, Wesel, Germany) cell lines were purchased from indicated cell culture banks. Normal human skin fibroblasts were isolated from the upper arm of a donor at the Neurochemical Laboratory, Department of Chemistry and Biochemistry, School of Medicine, University of Zagreb. HeLa, MDA-MB-435S and fibroblasts were grown in Dulbecco’s Modified Eagle’s Medium (DMEM; Sigma-Aldrich, St. Louis, MI, USA) while the SK-OV-3 cell line was grown in McCoy’s 5A medium (Capricorn Scientific, Ebsdorfergrund, Germany). All media were supplemented with 10% fetal bovine serum (FBS; Sigma-Aldrich) and 50 I.U./mL penicillin and 50 μg/mL streptomycin. Cells were cultured in a humidified atmosphere of 5% CO2 at 37 °C and were sub-cultured every 3–4 days. HeLa, MDA-MB-435S, SK-OV-3 cells and fibroblasts were seeded in 96 well plates. Twenty-four hours later the cells were treated, in quadruplicate, with different concentrations of compounds (dissolved in DMSO, kept at 4 °C and protected from light). Following 72 h of incubation at 37 °C, the medium was aspired and modified 3-(4,5-dimethylthiazol-2-yl)-2,5-diphenyltetrazolium bromide (MTT) assay was used to determine the cytotoxic effect of the tested compounds. Three hours later, formazan crystals were dissolved in DMSO (0.17 mL/well), the plates were mechanically agitated for 20 min and the optical density at 600 nm was determined on a microtiter plate reader (Awareness Technology Inc., Palm City, FL, USA). The experiments were repeated three times.

Fibroblasts = experiment: MTT cytotoxicity assay, normal human skin fibroblasts; type: cell-based; conditions: Fibroblast, 72 h incubation, ± SD
Experimental: as §2

Tel22 G-quadruplex [9] = experiment: Thermal melting of Tel22 in potassium phosphate buffer; type: binding, human; conditions: Tel22, r = 1.0, potassium phosphate buffer, pH = 7.0, I = 0.1 mol dm^−3; error ±0.5 °C
Experimental: as §1

MDA-MB-435S cells = experiment: MTT cytotoxicity assay, MDA-MB-435S; type: cell-based; conditions: Homo sapiens, 72 h incubation, ± SD
Experimental: as §2

[10] = biological target: Tel22 (5′-AGGG(TTAGGG)3–3′) G-quadruplex; experiment: Fluorimetric titration with Tel22 in potassium phosphate buffer (K+ solution); type: binding, human; conditions: Tel22, potassium phosphate buffer, pH = 7.0, I = 0.1 mol dm^−3; SPECFIT fit
Experimental: (§3) Materials. Polynucleotides were purchased as noted: poly A–poly U, calf thymus ctDNA, poly(dAdT)2 and poly(dGdC)2 (Sigma-Aldrich, St. Louis, MI, USA). Polynucleotides were dissolved in Na-cacodylate buffer, I = 0.05 mol dm^−3, pH = 7.0. The calf thymus ctDNA was additionally sonicated and filtered through a […]. Polynucleotide concentration was determined spectroscopically as the concentration of phosphates. Spectrophotometric titrations were performed at pH = 7.0 (I = 0.05 mol dm^−3, sodium cacodylate buffer) by adding aliquots of polynucleotide solution into the solution of the studied compound for fluorimetric experiments and CD experiments were done by adding aliquots of the compound stock solution into the solution of a polynucleotide. In fluorimetric experiments, an excitation wavelength of λexc = 425, 431, 423, 427, 406 and 407 nm, respectively, was used to avoid the inner filter effect caused due to increasing absorbance of the polynucleotide. Emission was collected in the range λem = 400–700 nm. Values for Ka obtained by processing titration data using the Scatchard equation [27], all have satisfactory correlation coefficients (≥0.98).
as §1
(§4) Binding constants (log Ka) and stoichiometry of complexes were calculated from the fluorimetric data using non-linear least-square program SPECFIT [46], in the concentration range that corresponded to 20–80% complex formed.

SK-OV-3 cells = experiment: MTT cytotoxicity assay, SK-OV-3; type: cell-based; conditions: Homo sapiens, SK-OV-3, 72 h incubation, ± SD
Experimental: as §2

[11] = biological target: Tel22 (5′-AGGG(TTAGGG)3–3′) G-quadruplex; experiment: Fluorimetric titration with Tel22 in sodium cacodylate buffer (Na+ solution); type: binding, human
Experimental: as §3, §1, §4

[12] = K+ (potassium phosphate, I = 0.1 M)
[13] = Na+ (sodium cacodylate, I = 0.1 M)

∆Tm [1, 12]: 3.2 °C
∆Tm [1, 13]: 2.1 °C
logKa [2]: 7.78 ± 0.18
logKa1 [2]: 6.19 ± 0.01
binding ([3]; bisignate ICD +440/−410 nm): yes
binding ([4]; positive ICD at 440 nm): yes
binding ([5]; bisignate ICD +405/−385 nm): yes
SMILES: CN1C(=Cc2[se]c3ccccc3[n+]2C)Sc2cc(Cl)ccc21

∆Tm [1, 12]: 0.5 °C
∆Tm [1, 13]: 0.5 °C
logKa [2]: 6.88 ± 0.05
logKa1 ([2]; site 1 of 2): 7.26 ± 0.41
binding ([4]; positive ICD at 440 nm): yes
binding ([5]; bisignate ICD +405/−385 nm): yes
SMILES: CN1C(=Cc2[se]c3ccccc3[n+]2C)Sc2ccccc21

∆Tm [1, 12]: 5.1 °C
∆Tm [1, 13]: 2.1 °C
∆Tm [6]: 4 °C
SMILES: C[n+]1c(C=C2Sc3ccccc3N2CCCS)[se]c2ccccc21

∆Tm [1, 12]: 6.9 °C
∆Tm [1, 13]: 2.0 °C
binding ([3]; bisignate ICD +440/−400 nm): yes
binding ([4]; bisignate ICD +440/−400 nm): yes
binding ([5]; bisignate ICD): yes
SMILES: C[n+]1c(C=C2Sc3ccccc3N2CCS)[se]c2ccccc21

SMILES: CN1/C(=C/c2[se]c3ccccc3[n+]2C)Sc2ccccc21 (as salt: sulphate) [Compound 3, 3-methyl-2-((3-methylbenzo[d]thiazol-2(3H)-ylidene)methyl)benzo[d][1,3]selenazol-3-ium methosulphate]
melting point: > 300 °C

SMILES: CN1/C(=C/c2[se]c3ccccc3[n+]2C)Sc2cc(Cl)ccc21 (as salt: sulphate) [Compound 4, 2-((6-chloro-3-methylbenzo[d]thiazol-2(3H)-ylidene)methyl)-3-methylbenzo[d][1,3]selenazol-3-ium methosulphate]
melting point: > 300 °C

SMILES: C[n+]1c(/C=C2\Sc3ccccc3N2CCCS)[se]c2ccccc21 (as salt: sulphate) [Compound 5, 2-((3-(3-mercaptopropyl)benzo[d]thiazol-2(3H)-ylidene)methyl)-3-methylbenzo[d][1,3]selenazol-3-ium methosulphate]
melting point: 233 to 236 °C

SMILES: C[n+]1c(/C=C2\Sc3ccccc3N2CCS)[se]c2ccccc21 (as salt: sulphate) [Compound 6, 2-((3-(2-mercaptoethyl)benzo[d]thiazol-2(3H)-ylidene)methyl)-3-methylbenzo[d][1,3]selenazol-3-ium methosulphate]
melting point: 245 to 247 °C

SMILES: COc1ccc2c(c1)SC(=Cc1[se]c3ccccc3[n+]1C)N2CCCS(=O)(=O)[O-] [Compound 2, 3-(6-methoxy-2-((3-methylbenzo[d][1,3]selenazol-3-ium-2-yl)methylene)benzo[d]thiazol-3(2H)-yl)propane-1-sulfonate]
melting point: > 300 °C
∆Tm [1, 13]: 0 °C
∆Tm (Tel22 G-quadruplex [7]): 0 °C
Aggregation in DMSO stock solution ([8]; DMSO, after several weeks): prone to aggregation
Aggregation in aqueous buffer [8]: mixture of monomer and aggregated form

SMILES: CN1/C(=C/c2[se]c3ccccc3[n+]2C)Sc2cc(Cl)ccc21 [Compound 4, 2-((6-chloro-3-methylbenzo[d]thiazol-2(3H)-ylidene)methyl)-3-methylbenzo[d][1,3]selenazol-3-ium methosulphate]
IC50 (HeLa cells): 793 ± 157 nM
IC50 (Fibroblasts): > 2500 nM
∆Tm (Tel22 G-quadruplex [9]): 3.2 °C
IC50 (MDA-MB-435S cells): 614 ± 77.6 nM
∆Tm (Tel22 G-quadruplex [7]): 2.1 °C
logKa (L + G ⇆ LG, 1:1 complex) [10]: 7.78 ± 0.18
IC50 (SK-OV-3 cells): 1320 ± 125 nM
logKa1 (L + G ⇆ LG) ([11]; Tel22, sodium cacodylate buffer, pH = 7.0, I = 0.1 mol dm^−3, SPECFIT fit of fluorescence titration): 6.19 ± 0.01
Selectivity for G-quadruplex over duplex DNA ([11]; binding affinities Tel22 vs duplex DNA, in both the Na+ and K+ solutions): 100 fold
Aggregation in aqueous buffer [8]: do not form aggregates
